From US10479752B2, “Deuterated tetramethyl dioic acids, compositions comprising them and uses thereof” (SYNDROMEX LTD., priority 2011, dated 2019)

What was measured:
[1] = Comparative oral bioavailability / pharmacokinetic study, single intravenous and oral administration; type: in vivo; conditions: rat; for C0 / t1/2 / AUCinf / Cmax / tmax: Mean CV (%); for F (oral bioavailability): 50 mg/kg po vs 5 mg/kg iv, Mean (CV %); for tmax of the individual treated rats: oral administration 50 mg/kg, post-dose
Procedure: The pharmacokinetic properties and the oral bioavailability were investigated for the following comparative compounds:
The plasma concentrations of the test items were measured by LC/MS/MS method following single intravenous and oral administration at the doses of 5 mg/kg body weight and 50 mg/kg body weight, respectively. Following intravenous administration small inter-individual variability was observed. Following i.v administration, the highest plasma concentrations were measured at the first sampling time-point (5 minutes) followed by a biphasic continuous decrease. […] The peak concentrations, tmax and the apparent terminal elimination half-lives (t1/2) were the followings:
The vehicle for oral administration was prepared in advance. Preparation: 1 g of carboxymethylcellulose sodium salt was dissolved in 100 ml of Humaqua. The vehicle was prepared at least 2 days prior to formulation of the test items. The vehicle was stored in a refrigerator when not in use.
The required amount of test item was weighed on an analytical balance, transferred into a suitable vial. The test item was dissolved in the required volume of N,N-dimethylacetamide (40% of the final volume). Dissolution of the test item was facilitated by gentle mixing by vortex. The solution was diluted with the suitable volume of PEG400 (40% of the final volume) then Salsol A (20% of the final volume). The final concentration of the test item in the solution was 5 mg/ml. The formulations were prepared freshly on the day of administration.
The required amount of test item was weighed on an analytical balance, transferred into a test tube and mixed with the suitable volume of 1% CMC to achieve the final concentration of 25 mg/ml. The suspension was sonicated twice in bath sonicator for 30 min at 40 C (each round), and left overnight at room temperature. On the following day, the suspension was sonicated again (bath sonicator, 30 min, 40° C.) and further homogenized in a glass/glass homogenizer trying to reaching an homogenous suspension. In spite of the above procedure the quality (homogeneity) of the suspension was not perfect. The suspension was stored at room temperature till administration.
Species/Strain rat/Wistar (Crl:(WI)BR rats)
Number of animals: 24 males (at least 32 for cannulation*)
After the acclimatization period, rats were equipped with a jugular vein cannula under isoflurane anesthesia. The following day the animals were used for the study. In the morning the rats were checked for health status and blood sampling before assigning them into the experimental group.
The terminal elimination phase was defined on the basis of the last 3-5 measured concentration except rat A4. […] The central volume of distribution (Vc: […]) was approximately equal to the total blood volume. The volume of distribution estimated for the steady state situation (Vss: 97.3-143 ml/kg) remained also small compared to the total extracellular fluid volume (˜300 ml/kg). The clearance was also very small for all experimental compound analogues. The smallest clearance was obtained for Compound 7: 23.2 ml/h/kg.

[2] = Chemical and isotopic stability as solutions in DMSO/phosphate buffered saline over 48 hours; conditions: for chemical purity (HPLC area percent) with respect to related substances: all samples through the study; for analyte recovered, yield: summary over the study; for disenrichment of the product (isotopic stability): throughout the time period of the study
Procedure: A 1 mg/mL stock solution (˜55 mL) of deuterated compound in DMSO was prepared. A measured volume of stock (7.5 mL) was dispensed in to each of seven vials. To each vial was added a measured volume of PBS (aq) (3.0 mL), and each vial was agitated to mix. The vials were then placed in a thermostatically-controlled oven set to 37° C. At each time-point (0 h, 2 h, 4 h, 24 h, 48 h) a vial was drawn from the oven. To the vial was added MTBE (9.0 mL), and the mixture was stirred vigorously for 5 min. The layers were separated, and the MTBE layer was agitated with DI water (3.75 mL) for 1 min. The layers were separated. The MTBE layer was dried with MgSO4 for >1 h, and then filtered through a PTFE syringe filter into a tared vial. The solution was concentrated in vacuo to a solid residue, and the mass of the residue was calculated and recorded. To the residue a measured volume of MeOH was added to make (theoretically) a 2.5 mg/mL solution. In this case, 3.00 mL MeOH was added to each vial which theoretically contained 7.5 mg of compound. The content of each solution was measured by quantitative HPLC analysis (by comparison to a standard of known concentration). The MeOH solutions were then recovered, concentrated in vacuo to a solid, and then analyzed by GCMS to determine isotopic enrichment as the methyl ester derivatives.

Male db/db Mouse Model = assay: Comparative in vivo efficacy study, 3 h-fasting blood glucose; conditions: db/db mice
Procedure: Male db/db Mouse Model. Age of animal at start of treatment: 10-11 weeks. Animals per treatment group: 6-7 mice per each group.
Vehicle control: (1% CMC in water).
Positive control: Rosiglitazone, 25 mg/kg.
Group I: Compound 7″, 12.5 mg/kg.
Group II: Compound 7″, 25 mg/kg. […]
Group IV: Compound 7, 25 mg/kg.
Duration of treatment: 15 days.
1. Dosing: Animals are 10-11 weeks of age and were allowed to acclimate 1-2 weeks. After acclimation, animals were entered to the study and were […] daily for a duration of 15 days.
2. Formulation: compounds were formulated with […]. Formulation also involve sonication and vortexing before use.
4. Fasting Glucose Levels: 3 h-Fasting glucose levels were measured on tail blood of all the animals on days 0, 6, 12, and 16 (not shown) of the study using glucose sticks (Proforma).

[3] = DMSO/PBS solution, 37° C., 24 h
[4] = DMSO/PBS solution, 37° C., 48 h
[5] = Original Sample (before the stability study)

Compound	C0 ([1]; 5 mg/kg iv dose)	t1/2 ([1]; 5 mg/kg iv dose)	AUCinf ([1]; 5 mg/kg iv)	Cmax ([1]; 50 mg/kg po dose)	t1/2 ([1]; 50 mg/kg po dose)	tmax ([1]; 50 mg/kg po dose)	F (oral bioavailability) [1]	AUCinf ([1]; 50 mg/kg po)	tmax of the individual treated rats [1] [h]	GC/MS IE (isotopic enrichment) ([2]; DMSO/PBS solution, 37° C., 0 h) [%]	HPLC Area Percentage ([2]; DMSO/PBS solution, 37° C., 0 h) [%]	HPLC Assay ([2]; DMSO/PBS solution, 37° C., 0 h) [%]	GC/MS IE (isotopic enrichment) ([2]; DMSO/PBS solution, 37° C., 2 h) [%]	HPLC Area Percentage ([2]; DMSO/PBS solution, 37° C., 2 h) [%]	HPLC Assay ([2]; DMSO/PBS solution, 37° C., 2 h) [%]	GC/MS IE (isotopic enrichment) ([2]; DMSO/PBS solution, 37° C., 4 h) [%]	HPLC Area Percentage ([2]; DMSO/PBS solution, 37° C., 4 h) [%]	HPLC Assay ([2]; DMSO/PBS solution, 37° C., 4 h) [%]	GC/MS IE (isotopic enrichment) [2, 3] [%]	HPLC Area Percentage [2, 3] [%]	further results
[2H]C([2H])([2H])C(CCCCCCCCCCC(C([2H])([2H])[2H])(C([2H])([2H])[2H])C([2H])([2H])C(=O)O)(C([2H])([2H])[2H])C([2H])([2H])C(=O)O [Compound 1, 3,3,14,14-[D16]Tetramethyl-1,16-hexadecanedoic acid]	67.0 (8.8%) μg/ml	2.81 (28.5%) h	137 (19.3%) h * μg/ml	114 (19.6%) μg/ml	4.29 (15.7%) h	4 (0%) h	91.0 (11.1) %	1246 (11.1%) h * μg/ml	4	98.3	98.1	66.5	98.2	97.2	64.5	98.2	97.8	70.1	98.3	97.6	HPLC Assay [2, 3]: 89.3%; GC/MS IE (isotopic enrichment) [2, 4]: 98.3%; HPLC Area Percentage [2, 4]: 97.5%; HPLC Assay [2, 4]: 86.3%; chemical purity (HPLC area percent) with respect to related substances ([2]; DMSO/PBS solution, 37° C.): around 97%; analyte recovered, yield ([2]; DMSO/PBS solution, 37° C.): over 90%; disenrichment of the product (isotopic stability) ([2]; DMSO/PBS solution, 37° C.): No disenrichment; GC/MS IE (isotopic enrichment) [2, 5]: 98.3%; HPLC Area Percentage [2, 5]: 100.0%
CC(C)(CCCCCCCCCCC(C)(C)CC(=O)O)CC(=O)O [Compound 1″, reference compound]	56.1 (6.2%) μg/ml	2.68 (6.0%) h	124 (23.6%) h * μg/ml	103 (24.2%) μg/ml	2.43 (57.6%) h	3.5 (79.5%) h	69.6 (29.4) %	863 (29.4%) h * μg/ml	–	–	–	–	–	–	–	–	–	–	–	–	–
[2H]C([2H])([2H])C(CCCCCCCCCCCCC(C(=O)O)(C([2H])([2H])[2H])C([2H])([2H])[2H])(C(=O)O)C([2H])([2H])[2H] [Compound 7, 2,2,15,15-Tetramethyl(D12)-hexadecanedioic acid]	64.3 (16.9%) μg/ml	2.14 (2.6%) h	218 (14.9%) h * μg/ml	151 (29.0%) μg/ml	6.64 (50.3%) h	4 (0%) h	102 (36.8) %	2221 (36.8%) h * μg/ml	4	99.9	96.8	89.4	99.9	95.4	101.6	99.9	95.8	91.6	99.9	96.9	efficacy on 3 h-fasting blood glucose, in words (Male db/db Mouse Model; Group III (Compound 7, 25 mg dose) compared with Groups I and II (Compound 7″)): exceeds that of both treatment Groups I and II; glucose level reached (normalized plasma levels) (Male db/db Mouse Model; Group IV (Compound 7, 25 mg)): less than 110 mg %; efficacy on 3 h-fasting blood glucose, in words (Male db/db Mouse Model; Group IV (Compound 7, 25 mg), days 0, 6, 12, compared with Rosiglitazone 25 mg/kg): greater efficacy as compared with Rosiglitazone; mean residence time ([1]; intravenous administration): 4.2 h; clearance ([1]; iv administration): 0.387 mL/min/kg; mean residence time ([1]; oral administration): 11.8 h; HPLC Assay [2, 3]: 92.3%; GC/MS IE (isotopic enrichment) [2, 4]: 99.9%; HPLC Area Percentage [2, 4]: 96.7%; HPLC Assay [2, 4]: 82.2%; chemical purity (HPLC area percent) with respect to related substances ([2]; DMSO/PBS solution, 37° C.): around 96%; analyte recovered, yield ([2]; DMSO/PBS solution, 37° C.): approximately 90%; disenrichment of the product (isotopic stability) ([2]; DMSO/PBS solution, 37° C.): No disenrichment; GC/MS IE (isotopic enrichment) [2, 5]: 99.9%; HPLC Area Percentage [2, 5]: 99.5%
CC(C)(CCCCCCCCCCCCC(C)(C)C(=O)O)C(=O)O [Compound 7″, reference compound]	74.6 (6.9%) μg/ml	2.18 (19.1%) h	128 (13.4%) h * μg/ml	143 (41.3%) μg/ml	2.22 (9.9%) h	8 (50.0%) h	124 (28.3) %	1586 (28.3%) h * μg/ml	–	–	–	–	–	–	–	–	–	–	–	–	–
